# According to publication PMC11971462, “Generation and validation of a novel multitarget small molecule in glioblastoma” (Cell Death & Disease, 2025):
# Tested on: GNS166 cells
# Experiment: Label-free proteomics differential expression
# Format: cell-based, human
# Method: Proteomic studies were performed by the Proteomics Facility of the CIC bioGUNE by label-free relative quantification on nLC MS/MS. […] In both approaches, the top 20 enriched terms were plotted and the pathways were clustered using divisive hierarchical clustering based on pairwise Jaccard distances.
# [1] = label-free proteomics, sheet DDI Prot
compound,measurement,setting,value
C#CCN(Cc1cc2cc(OCCCN3CCCCC3)ccc2n1S(=O)(=O)c1ccccc1)C(=O)CCCCCCC(=O)NO [DDI],"Direction of BIEA_HUMAN (P53004, GN=BLVRA) protein",[1],Up
same,"Direction of CASP3_HUMAN (P42574, GN=CASP3) protein",[1],Up
same,"Direction of COEA1_HUMAN (Q05707, GN=COL14A1) protein",[1],Up
same,"Direction of GSH1_HUMAN (P48506, GN=GCLC) protein",[1],Up
same,"Direction of LKHA4_HUMAN (P09960, GN=LTA4H) protein",[1],Up
same,"Direction of NDUAC_HUMAN (Q9UI09, GN=NDUFA12) protein",[1],Up
same,"Direction of PGPS1_HUMAN (Q32NB8, GN=PGS1) protein",[1],Up
same,"Direction of PTSS1_HUMAN (P48651, GN=PTDSS1) protein",[1],Up
same,"Direction of RETST_HUMAN (Q6NUM9, GN=RETSAT) protein",[1],Up
same,"Direction of WDR47_HUMAN (O94967, GN=WDR47) protein",[1],Up
same,"Direction of YIPF5_HUMAN (Q969M3, GN=YIPF5) protein",[1],Up
same,"LogFC of PGPS1_HUMAN (Q32NB8, GN=PGS1) protein","label-free proteomics, sheet DDI Prot, p value 0.0469656",1.405
same,"LogFC of BIEA_HUMAN (P53004, GN=BLVRA) protein","label-free proteomics, sheet DDI Prot, p value 0.0475587",0.7997
same,"LogFC of GSH1_HUMAN (P48506, GN=GCLC) protein","label-free proteomics, sheet DDI Prot, p value 0.0480187",1.55
same,"LogFC of WDR47_HUMAN (O94967, GN=WDR47) protein","label-free proteomics, sheet DDI Prot, p value 0.0482259",1.18
same,"LogFC of LKHA4_HUMAN (P09960, GN=LTA4H) protein","label-free proteomics, sheet DDI Prot, p value 0.0482636",0.5863
same,"LogFC of CASP3_HUMAN (P42574, GN=CASP3) protein","label-free proteomics, sheet DDI Prot, p value 0.0487326",0.743
same,"LogFC of YIPF5_HUMAN (Q969M3, GN=YIPF5) protein","label-free proteomics, sheet DDI Prot, p value 0.049075",0.5348
same,"LogFC of NDUAC_HUMAN (Q9UI09, GN=NDUFA12) protein","label-free proteomics, sheet DDI Prot, p value 0.0492119",0.6479
same,"LogFC of COEA1_HUMAN (Q05707, GN=COL14A1) protein","label-free proteomics, sheet DDI Prot, p value 0.0493344",0.8788
same,"LogFC of RETST_HUMAN (Q6NUM9, GN=RETSAT) protein","label-free proteomics, sheet DDI Prot, p value 0.049447",0.7532
same,"LogFC of PTSS1_HUMAN (P48651, GN=PTDSS1) protein","label-free proteomics, sheet DDI Prot, p value 0.0494892",0.7741
same,Direction CNOT1_HUMAN,protein A5YKK6,Down
same,LogFC CNOT1_HUMAN,protein A5YKK6,-0.5343
same,Direction POTEM_HUMAN,protein A6NI47,Down
same,LogFC POTEM_HUMAN,protein A6NI47,-1.6004
same,LogFC BACH_HUMAN,protein O00154 GN=ACOT7,0.4908
same,LogFC STXB3_HUMAN,protein O00186 GN=STXBP3,-0.9203
same,Direction P3C2A_HUMAN,protein O00443,Down
same,LogFC P3C2A_HUMAN,protein O00443,-0.6873
same,LogFC SDCB1_HUMAN,protein O00560 GN=SDCBP,2.446
same,Direction DDX3X_HUMAN,protein O00571,Down
same,LogFC DDX3X_HUMAN,protein O00571,-0.4203
same,LogFC ACOD_HUMAN,protein O00767 GN=SCD,1.2881
same,Direction ARI1A_HUMAN,protein O14497,Down
same,LogFC ARI1A_HUMAN,protein O14497,-1.314
same,LogFC TOR1A_HUMAN,protein O14656 GN=TOR1A,-0.6936
same,Direction ANM5_HUMAN,protein O14744,Down
same,LogFC ANM5_HUMAN,protein O14744,-0.2326
same,Direction CHK1_HUMAN,protein O14757,Down
same,LogFC CHK1_HUMAN,protein O14757,-0.9245
same,LogFC GIPC1_HUMAN,protein O14908 GN=GIPC1,1.5016
same,Direction AURKA_HUMAN,protein O14965,Down
same,LogFC AURKA_HUMAN,protein O14965,-3.358
same,Direction DEGS1_HUMAN,protein O15121,Down
same,LogFC DEGS1_HUMAN,protein O15121,-0.1717
same,LogFC PGRC2_HUMAN,protein O15173 GN=PGRMC2,0.7586
same,LogFC ACOX3_HUMAN,protein O15254 GN=ACOX3,1.235
same,Direction OGT1_HUMAN,protein O15294,Down
same,LogFC OGT1_HUMAN,protein O15294,-0.4734
same,Direction TM9S1_HUMAN,protein O15321,Down
same,LogFC TM9S1_HUMAN,protein O15321,-2.186
same,LogFC TRI18_HUMAN,protein O15344 GN=MID1,0.3983
same,Direction SHIP2_HUMAN,protein O15357,Down
same,LogFC SHIP2_HUMAN,protein O15357,-1.6838
same,Direction FANCA_HUMAN,protein O15360,Down
same,LogFC FANCA_HUMAN,protein O15360,-1.214
same,LogFC MOT4_HUMAN,protein O15427 GN=SLC16A3,1.9
same,Direction MRP4_HUMAN,protein O15439,Down
same,LogFC MRP4_HUMAN,protein O15439,-0.8149
same,LogFC TPSN_HUMAN,protein O15533 GN=TAPBP,-0.5526
same,LogFC PSMD3_HUMAN,protein O43242 GN=PSMD3,-0.4067
same,LogFC PAPS1_HUMAN,protein O43252 GN=PAPSS1,0.7138
same,Direction VIP2_HUMAN,protein O43314,Down
same,LogFC VIP2_HUMAN,protein O43314,-0.766
same,LogFC TIM44_HUMAN,protein O43615 GN=TIMM44,-0.5983
same,Direction BUD23_HUMAN,protein O43709,Down
same,LogFC BUD23_HUMAN,protein O43709,-2.307
same,Direction AKAP8_HUMAN,protein O43823,Down
same,LogFC AKAP8_HUMAN,protein O43823,-2.082
same,Direction GTPB6_HUMAN,protein O43824,Down
same,LogFC GTPB6_HUMAN,protein O43824,-1.261
same,Direction KIF1B_HUMAN,protein O60333,Down
same,LogFC KIF1B_HUMAN,protein O60333,-2
same,LogFC NRP2_HUMAN,protein O60462 GN=NRP2,-0.6899
same,LogFC OGA_HUMAN,protein O60502 GN=OGA,0.8005
same,LogFC RNBP6_HUMAN,protein O60518 GN=RANBP6,1.52
same,LogFC CPNE3_HUMAN,protein O75131 GN=CPNE3,0.4901
same,LogFC HIP1R_HUMAN,protein O75146 GN=HIP1R,2.1312
same,Direction CLU_HUMAN,protein O75153,Down
same,LogFC CLU_HUMAN,protein O75153,-0.6987
same,Direction MPU1_HUMAN,protein O75352,Down
same,LogFC MPU1_HUMAN,protein O75352,-0.8716
same,Direction ENTP6_HUMAN,protein O75354,Down
same,LogFC ENTP6_HUMAN,protein O75354,-1.463
same,LogFC MTX2_HUMAN,protein O75431 GN=MTX2,-0.4239
same,Direction UTP20_HUMAN,protein O75691,Down
same,LogFC UTP20_HUMAN,protein O75691,-1.068
same,Direction DNJC8_HUMAN,protein O75937,Down
same,LogFC DNJC8_HUMAN,protein O75937,-0.4544
same,Direction TSN9_HUMAN,protein O75954,Down
same,LogFC TSN9_HUMAN,protein O75954,-3.176
same,LogFC SRP72_HUMAN,protein O76094 GN=SRP72,-0.4411
same,LogFC IPO13_HUMAN,protein O94829 GN=IPO13,1.054
same,LogFC K0754_HUMAN,protein O94854 GN=KIAA0754,-2.89
same,LogFC GLSK_HUMAN,protein O94925 GN=GLS,1.0422
same,Direction SOGA1_HUMAN,protein O94964,Down
same,LogFC SOGA1_HUMAN,protein O94964,-1.709
same,Direction UBR5_HUMAN,protein O95071,Down
same,LogFC UBR5_HUMAN,protein O95071,-1.078
same,LogFC GBRAP_HUMAN,protein O95166 GN=GABARAP,0.6601
same,Direction KIF4A_HUMAN,protein O95239,Down
same,LogFC KIF4A_HUMAN,protein O95239,-2.337
same,Direction GOSR1_HUMAN,protein O95249,Down
same,LogFC GOSR1_HUMAN,protein O95249,-1.68
same,Direction KAT7_HUMAN,protein O95251,Down
same,LogFC KAT7_HUMAN,protein O95251,-3.074
same,Direction SMC2_HUMAN,protein O95347,Down
same,LogFC SMC2_HUMAN,protein O95347,-0.9053
same,LogFC SYFM_HUMAN,protein O95363 GN=FARS2,-0.6412
same,LogFC G6PE_HUMAN,protein O95479 GN=H6PD,-1.176
same,LogFC ACSL3_HUMAN,protein O95573 GN=ACSL3,1.019
same,LogFC ASML_HUMAN,protein O95671 GN=ASMTL,3.03
same,Direction STAU1_HUMAN,protein O95793,Down
